Series [1] has as its system Human immunodeficiency virus 1. Description: Antiviral activity against HIV1 NL4-3 infected in human MT2 cells or CEMx174 5.25 M7 cells assessed as reduction in p24 Gag protein production measured at 4 days post infection by ELISA. Type of series: functional, organism-based. The settings on record: Human immunodeficiency virus 1, NL4-3, 96 h.
Series [2] addresses Envelope glycoprotein gp160 (Human immunodeficiency virus 1) (UniProt Q6QLK5). In words: Synergistic inhibition of HIV1 gp41-induced cell-cell fusion between viral envelope expressing human HL2/3 cells to CD4/CCR5 receptor expressing TZM-bl cells assessed as combination index at 2:1 compound to HP23 ratio incubated for 6 hrs by luciferase reporter gene assay.
Series [3] shares this target. Description: Binding affinity to HIV1 GP41 using GP41 NHR derived N36 peptide assessed as melting temperature at 10 uM incubated for 30 mins by CD spectroscopy.
For series [4], the system named is Human immunodeficiency virus 1. In words: Antiviral activity against T2635 resistant HIV1 LAI harboring Q66R mutant infected in human MT2 cells or CEMx174 5.25 M7 cells assessed as reduction in p24 Gag protein production measured at 4 days post-infection by ELISA. Type of series: functional, organism-based, M:B_Lai.
For series [5], the system named is Human immunodeficiency virus 1. Description: Ratio of EC50 for antiviral activity against T20 resistant HIV1 NL4-3 harboring with V38E/N42S mutant infected in human MT2 cells or CEMx174 5.25 M7 cells in absence of HP23 to EC50 for antiviral activity against T20 resistant HIV1 NL4-3 harboring with V38E/N42S mutant infected in human MT2 cells or CEMx174 5.25 M7 cells at 3500:1 compound to HP23 ratio. The series is classed as functional.

Series [6] relates to Human immunodeficiency virus 1. Description: Antiviral activity against R5 tropic HIV-1 subtype-B Bal infected in human MT2 cells or CEMx174 5.25 M7 cells assessed as reduction in p24 Gag protein production measured at 4 days post-infection by ELISA. Type of series: functional, cell-based, HIV-1 group M. The note with it: Human immunodeficiency virus 1, Bal, 96 h.
Series [7] deals with Human immunodeficiency virus 1. Description: Antiviral activity against HIV1 NL4-3 infected in human MT2 cells or CEMx174 5.25 M7 cells assessed as reduction in p24 Gag protein production at 10:1 compound to HP23 ratio measured at 4 days post-infection by ELISA. Type of series: functional, organism-based. The settings on record: Human immunodeficiency virus 1, NL4-3, 96 h.
Series [8] concerns Human immunodeficiency virus 1. In words: Antiviral activity against T20 resistant HIV1 NL4-3 harboring with V38E/N42T mutant infected in human MT2 cells or CEMx174 5.25 M7 cells assessed as reduction in p24 Gag protein production at 150:1 compound to HP23 ratio measured at 4 days post-infection by ELISA. The series is classed as functional, organism-based.
The test system of series [9] is Human immunodeficiency virus 1. Description: Synergistic antiviral activity against T20 resistant HIV1 NL4-3 harboring with V38E/N42S mutant infected in human MT2 cells or CEMx174 5.25 M7 cells assessed as reduction in p24 Gag protein production by measuring combination index at 3500:1 compound to HP23 ratio measured at 4 days post-infection by ELISA. The series is classed as functional.

Series [10] is described as follows: Metabolic stability of the compound assessed as Proteinase K (unknown origin)-mediated compound hydrolysis by measuring parent compound remaining at 3 to 100 uM after 4 hrs by RP-HPLC analysis. The series is classed as ADME. The note with it: human, read-out: Stability.
Series [11] has as its system Human immunodeficiency virus 1. In words: Antiviral activity against T20 resistant HIV1 NL4-3 harboring with V38E/N42T mutant infected in human MT2 cells or CEMx174 5.25 M7 cells assessed as reduction in p24 Gag protein production measured at 4 days post-infection by ELISA. Type of series: functional, organism-based.
In series [12] the test system is Human immunodeficiency virus 1. In words: Antiviral activity against X4 tropic HIV-1 subtype-B 3B infected in human MT2 cells or CEMx174 5.25 M7 cells assessed as reduction in p24 Gag protein production at 6:1 compound to HP23 ratio measured at 4 days post-infection by ELISA. The series is classed as functional, cell-based, HIV-1 group M. The settings on record: Human immunodeficiency virus 1, 3B, 96 h.

Series [13] concerns Human immunodeficiency virus 1. Description: Antiviral activity against T20 resistant HIV1 NL4-3 harboring with V38E/N42S mutant infected in human MT2 cells or CEMx174 5.25 M7 cells assessed as reduction in p24 Gag protein production measured at 4 days post-infection by ELISA. Type of series: functional, organism-based.
The test system of series [14] is Human immunodeficiency virus 1. Description: Antiviral activity against T20 resistant HIV1 NL4-3 harboring with V38E/N42T mutant infected in human MT2 cells or CEMx174 5.25 M7 cells assessed as reduction in p24 Gag protein production at 300:1 compound to HP23 ratio measured at 4 days post-infection by ELISA. The series is classed as functional, organism-based.
Series [15] relates to Human immunodeficiency virus 1. Description: Synergistic antiviral activity against HIV1 NL4-3 infected in human MT2 cells or CEMx174 5.25 M7 cells assessed as reduction in p24 Gag protein production by measuring combination index at 20:1 compound to HP23 ratio measured at 4 days post-infection by ELISA. The series is classed as functional.
Series [16] relates to Human immunodeficiency virus 1. In words: Antiviral activity against X4 tropic HIV-1 subtype-B 3B infected in human MT2 cells or CEMx174 5.25 M7 cells assessed as reduction in p24 Gag protein production measured at 4 days post-infection by ELISA. The series is classed as functional, cell-based, HIV-1 group M. The settings on record: Human immunodeficiency virus 1, 3B, 96 h.

The target in series [17] is Envelope glycoprotein gp160 (Human immunodeficiency virus 1) (UniProt Q6QLK5). Description: Ratio of EC50 for inhibition of HIV1 gp41-induced cell-cell fusion between viral envelope expressing human HL2/3 cells to CD4/CCR5 receptor expressing TZM-bl cells in absence of HP23 to EC50 for inhibition of HIV1 gp41-induced cell-cell fusion between viral envelope expressing human HL2/3 cells to CD4/CCR5 receptor expressing TZM-bl cells at 4:1 compound to HP23 ratio.

Series [18] deals with Human immunodeficiency virus 1. Description: Ratio of EC50 for antiviral activity against T20 resistant HIV1 NL4-3 harboring with V38E/N42T mutant infected in human MT2 cells or CEMx174 5.25 M7 cells in absence of hCS6ERE to EC50 for Antiviral activity against T20 resistant HIV1 NL4-3 harboring with V38E/N42T mutant infected in human MT2 cells or CEMx174 5.25 M7 cells at 300:1 hCS6ERE to compound ratio. Type of series: functional.

Series [19] deals with Human immunodeficiency virus 1. Description: Ratio of EC50 for antiviral activity against X4 tropic HIV-1 subtype-B 3B infected in human MT2 cells or CEMx174 5.25 M7 cells in absence of hCS6ERE to EC50 for antiviral activity against X4 tropic HIV-1 subtype-B 3B infected in human MT2 cells or CEMx174 5.25 M7 cells at 6:1 ratio of hCS6ERE to compound. Type of series: functional, HIV-1 group M.

In series [20] the test system is Human immunodeficiency virus 1. In words: Ratio of EC50 for antiviral activity against X4 tropic HIV-1 subtype-B 3B infected in human MT2 cells or CEMx174 5.25 M7 cells in absence of hCS6ERE to EC50 for antiviral activity against X4 tropic HIV-1 subtype-B 3B infected in human MT2 cells or CEMx174 5.25 M7 cells at 12:1 ratio of hCS6ERE to compound. The series is classed as functional, HIV-1 group M.

The test system of series [21] is Human immunodeficiency virus 1. Description: Ratio of EC50 for antiviral activity against R5 tropic HIV-1 subtype-B Bal infected in human MT2 cells or CEMx174 5.25 M7 cells in absence of hCS6ERE to EC50 for antiviral activity against R5 tropic HIV-1 subtype-B Bal infected in human MT2 cells or CEMx174 5.25 M7 cells at 24:1 ratio of hCS6ERE to compound. The series is classed as functional, HIV-1 group M.

Starred links: 1 amine or outer side, 2 acyl side, 3 side chain; linkers in the order of their positions; H or OH if unused. Positions of bridges follow the written chain, without caps; N, C: chain ends. Non-standard residues stand in square brackets, D forms with d. Residues, ends and D or L forms follow the SMILES beside them. ξ: configuration not given here. mXylylene = c1cc(C[*:1])cc(C[*:2])c1; ξhCys = NC(CCS)C(=O)O

Sequence of Envelope glycoprotein gp160 (Human immunodeficiency virus 1) (Q6QLK5 1-814): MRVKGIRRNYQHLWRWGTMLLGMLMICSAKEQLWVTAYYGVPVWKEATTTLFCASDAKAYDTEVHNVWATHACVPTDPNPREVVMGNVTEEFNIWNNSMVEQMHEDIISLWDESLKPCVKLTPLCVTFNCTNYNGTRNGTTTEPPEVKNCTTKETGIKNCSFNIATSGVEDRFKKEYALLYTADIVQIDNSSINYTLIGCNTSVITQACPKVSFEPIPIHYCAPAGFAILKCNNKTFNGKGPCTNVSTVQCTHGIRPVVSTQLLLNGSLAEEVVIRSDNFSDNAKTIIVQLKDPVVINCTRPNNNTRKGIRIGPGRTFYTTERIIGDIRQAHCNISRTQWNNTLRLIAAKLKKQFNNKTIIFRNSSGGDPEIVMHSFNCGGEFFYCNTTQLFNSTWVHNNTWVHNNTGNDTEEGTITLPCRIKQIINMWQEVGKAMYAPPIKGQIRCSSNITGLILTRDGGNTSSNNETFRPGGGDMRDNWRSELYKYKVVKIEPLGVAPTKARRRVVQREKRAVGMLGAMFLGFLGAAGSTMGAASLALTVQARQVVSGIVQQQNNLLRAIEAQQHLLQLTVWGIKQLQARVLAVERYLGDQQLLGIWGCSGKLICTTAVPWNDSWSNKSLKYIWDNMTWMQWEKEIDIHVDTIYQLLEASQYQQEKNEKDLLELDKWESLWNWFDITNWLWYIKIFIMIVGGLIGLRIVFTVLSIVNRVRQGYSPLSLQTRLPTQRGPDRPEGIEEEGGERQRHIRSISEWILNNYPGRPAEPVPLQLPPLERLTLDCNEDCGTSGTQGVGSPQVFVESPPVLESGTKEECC

As to `CC[C@H](C)[C@H](NC(C)=O)C(=O)N[C@@H](CCC(=O)O)C(=O)N[C@@H](CCC(=O)O)C(=O)N[C@@H](CC(C)C)C(=O)N[C@H](C(=O)NC1CCSCc2cccc(c2)CSCCC(C(=O)N[C@@H](CCC(N)=O)C(=O)N[C@@H](CCC(N)=O)C(=O)N[C@@H](CCCNC(=N)N)C(=O)N[C@@H](CCCCN)C(=O)N[C@@H](CC(N)=O)C(=O)N[C@@H](CCC(=O)O)C(=O)N[C@@H](CCC(=O)O)C(=O)N[C@@H](C)C(=O)N[C@@H](CC(C)C)C(=O)N[C@@H](CCCNC(=N)N)C(=O)N[C@@H](CCC(=O)O)C(=O)N[C@@H](CC(C)C)C(N)=O)NC(=O)[C@H](CCC(N)=O)NC(=O)[C@H](C)NC(=O)[C@H](C)NC1=O)[C@@H](C)CC` (some centres not stated) (Ac-IEELI[ξhCys]AAQ[ξhCys]QQRKNEEALREL-NH2; linker 6-10 via mXylylene), the EC50 in [1] was 22.1 nM; in series [4] it was 86.4 nM; in [6] it was 15.2 to 15.4 nM; in [7] it was 9 nM; in series [8], 327 nM; in series [11] it was 1010 nM. Moreover, the concentration giving a half-maximal response (EC50) in series [12] was 7.6 nM; in [13], 6900 nM; in series [14], 433 nM; in series [16] it was 11 to 27.1 nM. Besides, the CI in series [2] worked out at 0.8; in series [9], 0.7; in [15], 0.8. In addition, in [3], the Tm is 57.6 °C. Moreover, the “Ratio EC50” value in series [5] was found to be 3.4; in [17] it was 2.9. The remaining at 4 h, up to 100 µM in [10] was 100%.
H-EMTWEEWEKKIEEYTKKIEEILK-OH: the concentration for a half-maximal effect (EC50) in [1] was found to be 3.4 nM; in [4] it was 4.8 nM; in [6] it was 2.6 nM; in series [11], 4.1 nM; in [13] it was 1.4 nM; in series [16], 2.5 nM. The “Ratio EC50” value in [18] was determined as 2.9; in series [19], 1.9; in series [20] it was 2.8; in series [21], 5.2.

Values taken from ChEMBL document CHEMBL4334495, “Design and Biological Evaluation of m-Xylene Thioether-Stapled Short Helical Peptides Targeting the HIV-1 gp41 Hexameric Coiled-Coil Fusion Complex” (J Med Chem, 2019).
